Source: US20240207269A1, “USES OF HETEROCYCLIC INHIBITORS OF ERK1/2” (Erasca, Inc., priority 2021, published 2024)

Assay: First-in-Human (FIH) Phase 1 study comparing QW and QD regimens
Format: in vivo
Details: QW preferred to QD
Description: Both QW and QD regimens were evaluated in the First-in-Human (FIH) Phase 1 study. […] The observed data in indicate that having an uninterrupted coverage over IC90 for 1-2 days can improve cancer cell killing and maintaining Ctrough below IC50 can help normal cell recovery and can improve tolerability.

With Cc1cnc(NC2CCOCC2)nc1-n1cnc(C(=O)N[C@H](CN)c2cc(F)cc(Cl)c2)c1 [Compound 1, (S)—N-(2-amino-1-(3-chloro-5-fluorophenyl)ethyl)-1-(5-methyl-2-((tetrahydro-2H-pyran-4-yl)amino)pyrimidin-4-yl)-1H-imidazole-4-carboxamide] as the compound, how does the “Efficacy, QW regimen compared to QD regimen” value read?
The value was “better efficacy”.

And the “Skin toxicities, QW regimen compared to QD regimen” value?
Its value is “less frequent skin toxicities”.
